In ChEMBL document CHEMBL5728173, “N4-hydroxycytidine and derivatives and anti-viral uses related thereto” (2020):

Experiments:
[1] = CPE Assay: Primary cytopathic effect (CPE) reduction assay. Four-concentration CPE inhibition assays are performed. Confluent or near-confluent cell culture monolayers in 96-well disposable microplates are prepared.
[2] = antiviral activity: Several derivatives of EIDD-01931 have shown antiviral activity in screening against various viruses. Activity data is shown in the tables below. Norovirus SARS Coronavirus GT1 Orbani HG23 Vero 76.

| SMILES | EC50 [1] | EC50 [2] |
| --- | --- | --- |
| C#CC1(O)[C@@H](O)[C@@H](COP(=O)(OCOC(=O)C(C)(C)C)OCOC(=O)C(C)(C)C)O[C@H]1n1ccc(=O)[nH]c1=O (stereo partly drawn) | 64.4 µM | – |
| CCCCCCCNC(=O)OC[C@H]1O[C@@H](n2ccc(NO)nc2=O)C(O)[C@H]1O (stereo partly drawn) | > 78 µM | – |
| CCCCCCCCCCCCCCCCOCCCOP(=O)(O)OC[C@H]1O[C@@H](n2ccc(NO)nc2=O)C(O)[C@H]1O (stereo partly drawn) | 34.5 µM | – |
| CC(C)(C)C(=O)OCOP(=O)(OCOC(=O)C(C)(C)C)OC[C@H]1O[C@@H](n2ccc(=O)[nH]c2=O)C(C)(F)[C@H]1O (stereo partly drawn) | 58 µM | – |
| O=c1nc(NO)ccn1[C@@H]1O[C@H](CO)[C@H](O)C1F (stereo partly drawn) | > 75 µM | – |
| CCCCCCCCC(=O)OC[C@H]1O[C@@H](n2ccc(NO)nc2=O)C(O)[C@H]1O (stereo partly drawn) | 0.3 µM | – |
| O=c1nc(NO)ccn1[C@@H]1O[C@H](COP2(=O)OCc3ccccc3O2)[C@H](O)C1O (stereo partly drawn) | 10.8 µM | – |
| NNc1ccn([C@@H]2O[C@H](CO)[C@H](O)C2O)c(=O)n1 (stereo partly drawn) | > 78 µM | – |
| CC1(F)[C@@H](O)[C@@H](CO)O[C@H]1n1ccc(NO)nc1=O (stereo partly drawn) | > 75 µM | – |
| CCCCCCCNC(=O)ONc1ccn([C@@H]2O[C@H](CO)[C@H](O)C2O)c(=O)n1 (stereo partly drawn) | 29 µM | – |
| O=c1ccn([C@@H]2O[C@H](CO)[C@H](O)C23CC3(F)F)c(=O)[nH]1 (stereo partly drawn) | > 78 µM | – |
| CNC(=O)ONc1ccn([C@@H]2O[C@H](CO)[C@H](O)C2O)c(=O)n1 (stereo partly drawn) | 32 µM | – |
| CC(C)(C)C(=O)OCOP(=O)(OCOC(=O)C(C)(C)C)OC[C@@]1(N=[N+]=[N-])O[C@@H](n2ccc(=O)[nH]c2=O)C(O)[C@H]1O (stereo partly drawn) | 56 µM | – |
| CC1(O)[C@H]2OP(=O)(Oc3ccccc3)OC[C@H]2O[C@H]1n1ccc(=O)[nH]c1=O (stereo partly drawn) | > 78 µM | – |
| CC1(O)[C@@H](O)[C@@H](CO)O[C@H]1n1ccc(NO)nc1=O (stereo partly drawn) | 72 µM | > 0.366 mM |
| O=c1nc(NO)ccn1[C@@H]1O[C@H](CO)[C@H](O)C1O (stereo partly drawn) | – | > 3.86 mM |
| CCCCCCCNC(=O)ONc1ccn([C@H]2O[C@H](CO)[C@H](O)C2O)c(=O)n1 (stereo partly drawn) | 38 µM | – |
| CN(C)C(=O)ONc1ccn([C@@H]2O[C@H](CO)[C@H](O)C2O)c(=O)n1 (stereo partly drawn) | 25 µM | – |
| CCCCCCCCCCCCCCCCNC(=O)ONc1ccn([C@@H]2O[C@H](CO)[C@H](O)C2O)c(=O)n1 (stereo partly drawn) | > 78 µM | – |
| CCOP(=O)(OCC)OC[C@H]1O[C@@H](n2ccc(NO)nc2=O)C(O)[C@H]1O (stereo partly drawn) | > 78 µM | – |
| CONc1ccn([C@@H]2O[C@H](CO)[C@H](O)C2(C)O)c(=O)n1 (stereo partly drawn) | > 75 µM | – |
| O=c1nc(NO)cc[nH]1 [N4-hydroxycytosine] | > 78 µM | – |
